According to patent publication US20230303562A1, “PYRAZOLE COMPOUND AND PREPARATION METHOD THEREFOR AND USE THEREOF” (Sichuan Kelun-Biotech Biopharmaceutical Co., Ltd., priority 2020, published 2023):

Legend:
[1] = Pharmacokinetics (PK) study in Balb/c mice; format: in vivo; details: female Balb/c mice; for F (bioavailability) / bioavailability: PO 10 mg/kg compared with IV 1 mg/kg; for bioavailability: mouse, read-out: F (bioavailability)
Method: The example compounds were administered to female Balb/c mice via intravenous injection (IV) and gastric perfusion (PO), respectively, and their pharmacokinetic properties were investigated. The administered doses for IV and PO were 1 mg/kg and 10 mg/kg, respectively. The solvent for IV was 5% DMSO+5% Solutol (15-hydroxystearic acid polyethylene glycol ester)+90% normal saline, the solvent for PO was 0.5% MC ([…] methylcellulose). Whole blood samples were collected at various time points after IV and PO administration, and subjected to EDTA-K2 anticoagulation before test.
Whole blood samples were processed by precipitating proteins and then subjected to LC-MS/MS analysis. The pharmacokinetic parameters were calculated by the non-compartmental model using WinNonlin 6.3 software, and the results were shown in Table 6 below.

TGFβR1 = TGFβR1 (Homo sapiens (Human), UniProt P36897); test: In vitro enzymatic activity inhibition test (TGFβR1), ADP-Glo Kinase Detection Kit; format: biochemical; details: estimated from inhibition at 1000, 100, 10 nM
Chain of TGFβR1 (P36897 34-503): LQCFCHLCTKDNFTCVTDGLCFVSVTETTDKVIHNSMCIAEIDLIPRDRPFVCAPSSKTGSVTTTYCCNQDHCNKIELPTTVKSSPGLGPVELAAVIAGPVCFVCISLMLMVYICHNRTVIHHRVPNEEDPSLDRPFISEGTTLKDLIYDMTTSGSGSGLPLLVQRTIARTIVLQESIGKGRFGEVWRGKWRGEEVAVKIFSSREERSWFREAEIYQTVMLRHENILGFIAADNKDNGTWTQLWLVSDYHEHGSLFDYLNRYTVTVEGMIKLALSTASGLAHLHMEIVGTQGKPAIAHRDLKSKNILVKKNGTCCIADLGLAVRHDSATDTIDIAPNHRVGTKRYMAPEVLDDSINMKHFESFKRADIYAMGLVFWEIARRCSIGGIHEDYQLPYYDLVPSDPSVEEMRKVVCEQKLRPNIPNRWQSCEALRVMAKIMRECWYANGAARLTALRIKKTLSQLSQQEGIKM
Method: Experimental method: According to the instructions of ADP-Glo™ Kinase Detection Kit (Promega), the inhibitory effect of the compounds of the present invention on the enzymatic activity of TGFβR1 was determined, and the steps were as follows:
TGFβR1 enzyme were pre-incubated with different concentrations of test compounds (1000 nM, 100 nM, 10 nM) at 30° C. for 30 min, TGFβR1 peptide and adenosine triphosphate (ATP) were added to initiate the reaction. The incubation was performed at 30° C. for 3 h, followed by an addition of ADP-Glo™ reagent and incubated at room temperature for 90 min, kinase detection reagent was then added. Chemiluminescence signal values were detected after incubation at room temperature for another 30 min. Taking the solvent group (DMSO) as the negative control and the buffer group (without TGFβR1 enzyme) as the blank control, the percent inhibition rates of different concentrations of compounds were calculated according to the following formula: […]
When the percent inhibition rate was between 30% and 80%, the median inhibitory concentration (IC50) or range of the compound was calculated according to the following formula:
IC50=X×(1−percent inhibition rate (%))/percent inhibition rate (%), wherein X is the concentration of the compound at which the inhibition rate is between 30% and 80%.

hERG = hERG (Homo sapiens (Human), UniProt Q12809); test: Biochemical hERG inhibition test (Predictor hERG fluorescence polarization kit); format: binding; details: competition with Tracer, tested at 10 μM and 1 μM
Chain of hERG (Q12809 whole entry): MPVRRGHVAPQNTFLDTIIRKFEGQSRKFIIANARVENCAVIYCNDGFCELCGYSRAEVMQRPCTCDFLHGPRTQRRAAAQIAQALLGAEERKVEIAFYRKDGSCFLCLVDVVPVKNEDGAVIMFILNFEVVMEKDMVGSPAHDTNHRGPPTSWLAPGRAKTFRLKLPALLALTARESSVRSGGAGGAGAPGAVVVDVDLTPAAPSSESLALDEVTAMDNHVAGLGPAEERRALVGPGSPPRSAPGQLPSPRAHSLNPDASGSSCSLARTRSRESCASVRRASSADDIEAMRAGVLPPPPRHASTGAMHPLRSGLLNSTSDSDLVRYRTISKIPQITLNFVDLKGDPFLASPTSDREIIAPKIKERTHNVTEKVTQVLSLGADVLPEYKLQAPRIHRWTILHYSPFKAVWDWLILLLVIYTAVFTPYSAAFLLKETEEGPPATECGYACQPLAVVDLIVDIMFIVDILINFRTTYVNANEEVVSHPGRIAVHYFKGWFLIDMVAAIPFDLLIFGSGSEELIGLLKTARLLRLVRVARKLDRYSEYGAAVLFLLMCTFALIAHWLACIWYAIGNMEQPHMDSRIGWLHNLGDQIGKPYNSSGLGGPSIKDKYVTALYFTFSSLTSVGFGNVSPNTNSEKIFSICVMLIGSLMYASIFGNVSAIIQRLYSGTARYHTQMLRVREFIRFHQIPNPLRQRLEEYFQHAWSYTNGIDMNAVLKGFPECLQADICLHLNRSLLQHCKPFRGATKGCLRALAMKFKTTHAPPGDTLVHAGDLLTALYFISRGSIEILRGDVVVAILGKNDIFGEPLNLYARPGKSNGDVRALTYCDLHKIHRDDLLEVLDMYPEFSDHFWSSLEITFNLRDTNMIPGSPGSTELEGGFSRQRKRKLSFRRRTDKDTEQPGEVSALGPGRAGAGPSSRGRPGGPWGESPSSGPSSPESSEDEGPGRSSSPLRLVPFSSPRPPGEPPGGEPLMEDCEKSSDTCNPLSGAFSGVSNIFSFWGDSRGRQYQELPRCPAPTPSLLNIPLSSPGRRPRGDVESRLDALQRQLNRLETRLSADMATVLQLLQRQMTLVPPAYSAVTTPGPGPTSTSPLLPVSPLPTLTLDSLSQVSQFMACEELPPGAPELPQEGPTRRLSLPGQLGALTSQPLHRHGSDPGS
Method: Kit: Predictor™ hERG fluorescence polarization detection kit (ThermoFisher), the kit contained the following components: positive control compound hERG potassium channel blocker E4031; hERG cell membrane; affinity tracer Tracer; and hERG buffer.
hERG concentration: 1×; Tracer concentration: 1 nM; incubation time: 2 h; BMG PHERAstar FS FP.
The test was carried out according to the kit instructions, and the steps were as follows:
Positive control group: 30 μM positive control compound E4031 was used to replace the test compound, and the experimental method was the same as that of the test group.
Blank control group: hERG buffer was used to replace the test compound without the addition of hERG cell membrane, and the experimental method was the same as that of the test group.
According to the data ratio, the percent inhibition rates (%) of the compounds of the present invention to hERG at different concentrations were calculated, and the ranges of the half inhibitory concentration (IC50) of the compounds were determined.

TGFβR2 = TGFβR2 (Homo sapiens (Human), UniProt P37173); test: In vitro enzymatic activity inhibition test (TGFβR2), ADP-Glo Kinase Detection Kit; format: biochemical; details: MBP substrate, estimated from inhibition at 1000, 100, 10 nM
Chain of TGFβR2 (P37173 23-567): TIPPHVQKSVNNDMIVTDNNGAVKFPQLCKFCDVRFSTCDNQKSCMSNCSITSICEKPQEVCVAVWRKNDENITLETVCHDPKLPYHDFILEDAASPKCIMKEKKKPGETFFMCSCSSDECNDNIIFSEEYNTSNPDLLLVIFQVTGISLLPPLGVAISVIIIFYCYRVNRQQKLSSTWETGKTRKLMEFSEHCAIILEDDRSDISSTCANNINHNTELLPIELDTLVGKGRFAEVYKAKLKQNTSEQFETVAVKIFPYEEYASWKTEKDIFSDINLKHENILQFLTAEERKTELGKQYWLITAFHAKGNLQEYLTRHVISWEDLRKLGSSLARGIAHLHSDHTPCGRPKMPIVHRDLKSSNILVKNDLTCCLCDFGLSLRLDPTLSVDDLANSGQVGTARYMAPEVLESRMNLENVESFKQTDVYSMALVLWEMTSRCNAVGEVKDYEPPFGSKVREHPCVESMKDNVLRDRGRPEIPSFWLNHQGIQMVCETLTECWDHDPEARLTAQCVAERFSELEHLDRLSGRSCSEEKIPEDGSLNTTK
Method: The chemiluminescence signal values were detected after incubation at room temperature for another 30 min.

SMILES: Cc1cccc(-n2nc3c(c2-c2ccn4ncc(C(N)=O)c4c2)CCC3)n1 [Example 6, 5-[2-(6-methylpyridin-2-yl)-2,4,5,6-tetrahydrocyclopenteno[c]pyrazol-3-yl]pyrazolo[1,5-a]pyridine-3-carboxamide]
- AUClast ([1]; IV, 1 mg/kg, whole blood): 578 ± 4 ng·h/mL
- Cl ([1]; IV, 1 mg/kg, whole blood): 28.4 ± 0.3 mL/min/kg
- Cmax ([1]; IV, 1 mg/kg, whole blood): 1163 ± 58 ng/mL
- F (bioavailability) [1]: 61.4 ± 9.5%
- F (bioavailability) ([1]; listed as Example VI): 61.4%
- AUClast ([1]; PO, 10 mg/kg, whole blood): 3586 ± 563 ng·h/mL
- Cmax ([1]; PO, 10 mg/kg, whole blood): 7440 ± 226 ng/mL
- T1/2 ([1]; PO, 10 mg/kg, whole blood): 27.6 ± 11.4 min
- T1/2 ([1]; PO, 10 mg/kg, whole blood, listed as Example VI): 27.6 min

SMILES: Cc1cccc(-n2nccc2-c2ccn3ncc(C(N)=O)c3c2)n1 [Example 12, 5-(1-(6-methylpyridin-2-yl)-1H-pyrazol-5-yl)pyrazolo[1,5-a]pyridine-3-carboxamide]
- T1/2 ([1]; PO, 10 mg/kg, whole blood): 31.2 ± 10.8 min
- bioavailability ([1]; whole blood): 52.1%

SMILES: CNc1cc(-c2ccn3ncc(C(N)=O)c3c2)n(-c2cccc(C)n2)n1 [Example 8, 5-(3-(methylamino)-1-(6-methylpyridin-2-yl)-1H-pyrazol-5-yl)pyrazolo[1,5-a]pyridine-3-carboxamide]
- T1/2 ([1]; PO, 10 mg/kg, whole blood): 108 ± 21 min
- bioavailability ([1]; whole blood): 98.1%

SMILES: Cc1cccc(-n2nccc2-c2ccc3ncsc3c2)n1 [Example 1, 6-(1-(6-methylpyridin-2-yl)-1H-pyrazol-5-yl)benzo[d]thiazole]
- IC50 (TGFβR1): 48.6 ± 18.6 nM
- IC50 (hERG): > 10 µM
- IC50 (TGFβR2): > 1000 nM
